# Measured values published in BindingDB's records for doi:10.1074/jbc.M409068200 (Genentech, 2005).
# Legend:
# Assay in all cases: Serine Protease Inhibition Assay
# Settings in all cases: pH 7.8; 22 °C
# Plasminogen = Plasminogen (Homo sapiens, UniProt P00747)
# Description: (§1) The enzyme reactions were initiated by the addition of substrate, and the color developed from the release of p-nitroanilide from each chromogenic substrate was monitored continuously for 5 min at 405 nm on a microtiter plate reader. […] The apparent Ki values were then calculated according to the Cheng-Prusoff equation: Ki = IC50/1 + [S]/Km.
# [1] = molecular target: Vitamin K-dependent protein C (Homo sapiens, UniProt P04070)
# Description: as §1
# Prothrombin = Prothrombin (Homo sapiens, UniProt P00734)
# Description: as §1
# Serine protease 1 = molecular target: T1, Serine protease 1 (Bos taurus, UniProt P00760)
# T1 sequence (P00760 whole entry): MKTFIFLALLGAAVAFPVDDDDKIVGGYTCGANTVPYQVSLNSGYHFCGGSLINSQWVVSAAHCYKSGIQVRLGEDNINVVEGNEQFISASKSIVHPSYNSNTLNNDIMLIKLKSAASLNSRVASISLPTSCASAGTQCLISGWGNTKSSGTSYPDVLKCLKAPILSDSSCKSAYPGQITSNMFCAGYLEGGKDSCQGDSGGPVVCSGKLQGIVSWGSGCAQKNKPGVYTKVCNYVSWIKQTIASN
# Description: as §1
# Coagulation factor X = Coagulation factor X (Homo sapiens, UniProt P00742)
# Description: as §1
# [2] = molecular target: Tissue-type plasminogen activator (Homo sapiens, UniProt P00750)
# Description: as §1
# Plasma kallikrein = Plasma kallikrein (Homo sapiens, UniProt P03952)
# Description: as §1
# [3] = molecular target: Urokinase-type plasminogen activator (Homo sapiens, UniProt P00749)
# Description: as §1
# Chain of Plasma kallikrein (P03952 20-390 limits assumed): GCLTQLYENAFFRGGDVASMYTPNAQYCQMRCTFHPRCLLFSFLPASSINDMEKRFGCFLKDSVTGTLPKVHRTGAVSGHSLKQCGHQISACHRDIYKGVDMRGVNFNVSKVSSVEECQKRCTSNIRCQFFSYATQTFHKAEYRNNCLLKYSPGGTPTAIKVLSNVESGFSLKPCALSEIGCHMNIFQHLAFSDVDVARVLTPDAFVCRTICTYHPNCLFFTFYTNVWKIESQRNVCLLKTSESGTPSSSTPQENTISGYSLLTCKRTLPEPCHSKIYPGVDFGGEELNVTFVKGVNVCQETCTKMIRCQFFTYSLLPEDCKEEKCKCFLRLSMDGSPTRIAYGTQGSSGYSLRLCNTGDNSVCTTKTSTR
# Chain of Plasma kallikrein (P03952 391-638 limits assumed): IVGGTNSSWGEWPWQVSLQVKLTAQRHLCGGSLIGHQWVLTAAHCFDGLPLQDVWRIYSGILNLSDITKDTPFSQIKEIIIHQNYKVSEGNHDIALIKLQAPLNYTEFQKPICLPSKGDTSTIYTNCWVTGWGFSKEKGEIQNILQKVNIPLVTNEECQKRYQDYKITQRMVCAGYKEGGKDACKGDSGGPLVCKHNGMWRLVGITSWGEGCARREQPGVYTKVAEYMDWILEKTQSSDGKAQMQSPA
# Chain of Coagulation factor X (P00742 41-179 limits assumed): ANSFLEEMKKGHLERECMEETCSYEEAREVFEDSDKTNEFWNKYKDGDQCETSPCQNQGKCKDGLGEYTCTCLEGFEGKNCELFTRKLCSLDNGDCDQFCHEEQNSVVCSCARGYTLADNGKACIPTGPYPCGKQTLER
# Chain of Coagulation factor X (P00742 235-488 limits assumed): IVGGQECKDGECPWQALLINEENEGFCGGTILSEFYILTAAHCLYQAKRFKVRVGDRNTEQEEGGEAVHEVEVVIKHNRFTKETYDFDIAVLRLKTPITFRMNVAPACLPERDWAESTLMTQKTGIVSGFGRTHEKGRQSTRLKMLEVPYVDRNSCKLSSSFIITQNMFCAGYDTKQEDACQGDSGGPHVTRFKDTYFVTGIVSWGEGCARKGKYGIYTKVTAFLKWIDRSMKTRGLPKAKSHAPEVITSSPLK
# Chain of Vitamin K-dependent protein C (P04070 43-197 limits assumed): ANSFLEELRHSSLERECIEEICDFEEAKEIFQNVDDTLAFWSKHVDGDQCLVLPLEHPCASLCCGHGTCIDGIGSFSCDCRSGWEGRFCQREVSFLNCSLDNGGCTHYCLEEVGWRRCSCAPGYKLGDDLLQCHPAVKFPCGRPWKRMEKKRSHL
# Chain of Vitamin K-dependent protein C (P04070 212-461 limits assumed): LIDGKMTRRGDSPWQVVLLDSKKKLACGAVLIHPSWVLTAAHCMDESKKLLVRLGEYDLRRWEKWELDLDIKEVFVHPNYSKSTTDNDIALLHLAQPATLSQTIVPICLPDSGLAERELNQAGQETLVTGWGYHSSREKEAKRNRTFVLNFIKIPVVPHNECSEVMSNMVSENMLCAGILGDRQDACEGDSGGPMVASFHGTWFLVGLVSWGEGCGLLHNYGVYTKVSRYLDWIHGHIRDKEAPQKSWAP
# Chain of Tissue-type plasminogen activator (P00750 whole entry): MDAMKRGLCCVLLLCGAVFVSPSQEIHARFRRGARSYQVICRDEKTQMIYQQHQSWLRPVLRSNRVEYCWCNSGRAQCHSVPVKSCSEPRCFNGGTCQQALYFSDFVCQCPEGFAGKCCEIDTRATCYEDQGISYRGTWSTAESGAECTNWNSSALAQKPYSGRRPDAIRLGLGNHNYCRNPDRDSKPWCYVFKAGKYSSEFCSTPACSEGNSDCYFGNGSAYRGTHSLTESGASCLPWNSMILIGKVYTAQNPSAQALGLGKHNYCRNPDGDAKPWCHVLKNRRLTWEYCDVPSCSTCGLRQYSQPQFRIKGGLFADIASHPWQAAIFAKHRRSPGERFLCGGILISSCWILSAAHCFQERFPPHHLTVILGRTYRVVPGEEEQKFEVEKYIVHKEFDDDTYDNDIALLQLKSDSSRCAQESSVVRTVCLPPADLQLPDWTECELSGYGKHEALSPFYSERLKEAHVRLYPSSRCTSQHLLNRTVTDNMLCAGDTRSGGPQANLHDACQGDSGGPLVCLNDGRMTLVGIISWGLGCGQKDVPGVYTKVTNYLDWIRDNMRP
# Chain of Plasminogen (P00747 97-580 limits assumed): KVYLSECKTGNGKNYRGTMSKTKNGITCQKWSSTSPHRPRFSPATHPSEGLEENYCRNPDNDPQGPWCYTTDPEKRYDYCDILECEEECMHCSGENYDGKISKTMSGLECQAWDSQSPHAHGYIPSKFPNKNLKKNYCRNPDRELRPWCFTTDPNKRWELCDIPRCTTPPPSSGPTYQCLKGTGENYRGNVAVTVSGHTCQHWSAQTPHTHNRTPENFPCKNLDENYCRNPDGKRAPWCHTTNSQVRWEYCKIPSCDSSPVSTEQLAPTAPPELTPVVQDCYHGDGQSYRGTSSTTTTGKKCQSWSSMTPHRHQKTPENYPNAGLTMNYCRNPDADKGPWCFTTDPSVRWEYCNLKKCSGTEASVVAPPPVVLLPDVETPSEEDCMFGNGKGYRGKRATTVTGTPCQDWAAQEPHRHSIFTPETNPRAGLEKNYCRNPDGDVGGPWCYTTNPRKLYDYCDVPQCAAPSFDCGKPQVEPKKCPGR
# Chain of Plasminogen (P00747 581-810 limits assumed): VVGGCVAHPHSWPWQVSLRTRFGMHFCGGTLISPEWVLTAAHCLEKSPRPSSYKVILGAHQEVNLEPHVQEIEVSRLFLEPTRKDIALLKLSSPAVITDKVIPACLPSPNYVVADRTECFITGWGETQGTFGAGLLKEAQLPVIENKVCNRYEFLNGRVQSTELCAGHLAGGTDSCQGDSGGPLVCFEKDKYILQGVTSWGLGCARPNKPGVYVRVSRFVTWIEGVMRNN
smiles,measurement,setting,value
"CCOc1cc(OCC)c(F)c([C@@H](Nc2ccc(C(=N)N)c(O)c2)C(=O)NS(=O)(=O)c2cccc(N)c2)c1 [(2R)-N-[(3-aminobenzene)sulfonyl]-2-[(4-carbamimidoyl-3-hydroxyphenyl)amino]-2-(3,5-diethoxy-2-fluorophenyl)acetamide]",Ki,Plasminogen,1200 nM
same,Ki,[1],87 nM
same,Ki,Prothrombin,3.6 µM
same,Ki,Serine protease 1,4 µM
same,Ki,Coagulation factor X,> 3.5 µM
same,Ki,[2],> 3.9 µM
same,Ki,Plasma kallikrein,114 nM
same,Ki,[3],> 3.4 µM
